From patent publication US11401243B2, “Quinoline derived small molecule inhibitors of nicotinamide N-methyltransferase (NNMT) and uses thereof” (priority 2017, dated 2022)
Entries after “also recorded” stand apart in the source; their conditions may differ.

Assays:
Caco-2 cells = assay: Bi-directional permeability assay with Caco-2 cells; details: Caco-2; listed as 5-amino-1MQ
[1] = as above; details: human
[2] = target: T1, recombinant human SIRT-1 (NAD+-dependent) enzyme (Homo sapiens, UniProt Q96EB6); assay: SIRT-1 activity assay (fluorometric); format: biochemical
T1 construct: Reaction Biology Corporation (ran the assay)
T1 sequence (Q96EB6 1-747): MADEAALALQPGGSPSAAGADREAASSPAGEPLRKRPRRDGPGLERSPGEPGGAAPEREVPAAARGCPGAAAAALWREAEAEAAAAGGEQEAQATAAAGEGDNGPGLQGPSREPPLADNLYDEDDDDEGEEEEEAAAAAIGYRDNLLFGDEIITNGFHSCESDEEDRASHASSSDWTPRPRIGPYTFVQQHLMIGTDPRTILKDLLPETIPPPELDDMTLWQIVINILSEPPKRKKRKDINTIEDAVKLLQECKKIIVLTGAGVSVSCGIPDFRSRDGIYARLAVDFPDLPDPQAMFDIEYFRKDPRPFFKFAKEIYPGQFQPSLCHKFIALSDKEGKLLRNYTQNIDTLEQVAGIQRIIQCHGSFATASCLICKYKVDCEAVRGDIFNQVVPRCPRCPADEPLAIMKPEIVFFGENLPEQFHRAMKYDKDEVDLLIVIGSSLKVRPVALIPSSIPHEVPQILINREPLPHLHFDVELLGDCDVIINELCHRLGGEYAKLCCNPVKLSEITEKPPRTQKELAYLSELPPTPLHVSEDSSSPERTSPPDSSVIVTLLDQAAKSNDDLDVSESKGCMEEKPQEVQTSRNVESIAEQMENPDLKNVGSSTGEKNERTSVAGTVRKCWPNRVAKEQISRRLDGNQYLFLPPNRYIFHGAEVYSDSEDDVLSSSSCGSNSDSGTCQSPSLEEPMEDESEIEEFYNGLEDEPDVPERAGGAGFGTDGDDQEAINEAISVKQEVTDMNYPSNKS

[3] = system: differentiated adipocytes (3T3 cells); assay: Quantitative measurement of selected metabolites (NA, SAM, SAH, NAD+) in cultured cells; format: cell-based
Description: Sample processing was performed as described above.

[4] = target: recombinant human NAMPT enzyme (Homo sapiens, UniProt P43490); assay: NAMPT activity assay (fluorometric); format: biochemical
[5] = system: NNMT activity in 3T3-L1 pre-adipocytes and differentiated adipocytes; assay: Quantitative measurement of NNMT reaction product 1-MNA in cultured cells (LC/MS/MS); format: cell-based; details: for intracellular levels of 1-MNA: 30 μM
Description: Differentiation of 3T3-L1 pre-adipocytes. […] Briefly, standard culture media was supplemented with scheduled addition of adipogenic agents [3-isobutyl-1methyl xanthine (IBMX), Sigma Aldrich; MO, USA), dexamethasone (Sigma Aldrich; MO, USA), insulin (Gibco Life Technologies Inc.; Grand Island, N.Y., USA)] over 10 days to promote differentiation of 3T3-L1 fibroblasts into adipocytes; a combination of 1 mM IBMX, 1 μM dexamethasone, and 10 μg/ml of insulin in media were added to fully confluent 3T3-L1 fibroblasts for three days (days 0-3) to initiate differentiation. At day 3, the media was replaced with culture media supplemented with insulin (10 μg/ml). After day 6, cells were maintained in culture media until described experiments were begun (days 8-10).
Cellular 1-MNA concentrations were determined using an ultra-sensitive high-resolution AB Sciex 6500 Q-trap mass spectrometer coupled to an Agilent 1260 ultra-high pressure liquid chromatography (LC/MS/MS) system. Using multiple reaction monitoring (MRM) positive ion mode, the 1-MNA NNMT reaction product was quantified from peak area ratios using AB Sciex Analyst and MultiQuant 2.1 software and the parent precursor and Q3 masses set to m/z 137.1 and 94.1, respectively. Fragment ions at m/z of 92.1 and 77.9 were additionally used for the detection and confirmation of 1-MNA, respectively. […]. To determine the effect of NNMT inhibitor on NNMT activity in the pre-adipocytes and differentiated adipocytes (8×10^4 cells/well seeded prior to beginning differentiation), cells were treated with 30 μM inhibitor for 24 h. Similarly, to compare the relative effects of multiple NNMT inhibitors on NNMT activity in cultured adipocytes, differentiated adipocytes in 6-well plates were treated with 10 μM test compound for 24 h. Following treatment, media was replaced with 80% (v/v) methanol (cooled to −80° C.) containing 500 nmol 6-chloronicotinamide (6-CN) as an internal standard (IS) to extract cellular metabolites. Adherent cells were scrapped, then centrifuged at 4° C. and 13000 g for 15 min, and the resulting supernatants processed using established protocols. […]. Data were subsequently normalized to the IS peak area and transformed as % control values for cross-sample comparisons. […] Choice of inhibitor concentrations and time period was chosen based on the results from the MTT studies.

[6] = target: recombinant human DNMT1 enzyme (Homo sapiens, UniProt P26358); assay: DNMT1 activity assay (radiometric); format: biochemical
[7] = system: differentiating 3T3-L1 cells; assay: Adipocyte differentiation / lipogenesis quantitated with oil red O staining; format: cell-based; details: for reduction of lipogenesis compared to control untreated adipocytes: oil red O
Description: On day 9 post-differentiation, cells were subjected to quantitative oil red O (Thermo Fisher Scientific; Waltham, Mass., USA) staining as adapted and modified from published protocols. Briefly, cells were washed twice with PBS, fixed with 10% formalin for 30 min at room temperature, and stained with oil red O working solution (˜0.2% oil red O in 99% isopropanol) for 30 min. Cells were then washed five times or with sterile water until unincorporated oil red O stain was completely removed. Images of oil red O staining in control and inhibitor-treated cells were digitally photographed using a light microscope (Olympus BX41; Tokyo, Japan). After image capture, 2-propanol (3.5 mL) was added to each dish for 10 min to dissolve the oil red O stain and absorbance was quantified in a plate reader set at 492 nm wavelength. To ensure the absorbance from oil red O staining was within the linear detection range of the plate reader, a calibration curve was established for oil red O staining in adipocytes using a previously described protocol.

Chain of recombinant human NAMPT enzyme (P43490 whole entry): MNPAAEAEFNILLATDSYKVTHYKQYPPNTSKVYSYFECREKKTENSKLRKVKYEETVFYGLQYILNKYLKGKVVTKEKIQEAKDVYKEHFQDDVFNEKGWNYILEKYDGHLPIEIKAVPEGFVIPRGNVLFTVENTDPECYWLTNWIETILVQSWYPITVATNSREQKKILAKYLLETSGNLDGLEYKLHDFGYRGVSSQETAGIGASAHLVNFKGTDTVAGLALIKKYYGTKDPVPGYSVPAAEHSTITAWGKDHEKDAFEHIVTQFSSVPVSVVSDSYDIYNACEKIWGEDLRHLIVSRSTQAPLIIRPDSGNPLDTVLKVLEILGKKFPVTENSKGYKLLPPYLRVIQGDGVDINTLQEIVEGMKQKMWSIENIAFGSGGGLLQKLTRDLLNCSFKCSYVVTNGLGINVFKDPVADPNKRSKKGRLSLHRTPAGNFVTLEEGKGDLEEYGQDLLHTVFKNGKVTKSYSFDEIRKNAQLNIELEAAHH
Chain of recombinant human DNMT1 enzyme (P26358 whole entry): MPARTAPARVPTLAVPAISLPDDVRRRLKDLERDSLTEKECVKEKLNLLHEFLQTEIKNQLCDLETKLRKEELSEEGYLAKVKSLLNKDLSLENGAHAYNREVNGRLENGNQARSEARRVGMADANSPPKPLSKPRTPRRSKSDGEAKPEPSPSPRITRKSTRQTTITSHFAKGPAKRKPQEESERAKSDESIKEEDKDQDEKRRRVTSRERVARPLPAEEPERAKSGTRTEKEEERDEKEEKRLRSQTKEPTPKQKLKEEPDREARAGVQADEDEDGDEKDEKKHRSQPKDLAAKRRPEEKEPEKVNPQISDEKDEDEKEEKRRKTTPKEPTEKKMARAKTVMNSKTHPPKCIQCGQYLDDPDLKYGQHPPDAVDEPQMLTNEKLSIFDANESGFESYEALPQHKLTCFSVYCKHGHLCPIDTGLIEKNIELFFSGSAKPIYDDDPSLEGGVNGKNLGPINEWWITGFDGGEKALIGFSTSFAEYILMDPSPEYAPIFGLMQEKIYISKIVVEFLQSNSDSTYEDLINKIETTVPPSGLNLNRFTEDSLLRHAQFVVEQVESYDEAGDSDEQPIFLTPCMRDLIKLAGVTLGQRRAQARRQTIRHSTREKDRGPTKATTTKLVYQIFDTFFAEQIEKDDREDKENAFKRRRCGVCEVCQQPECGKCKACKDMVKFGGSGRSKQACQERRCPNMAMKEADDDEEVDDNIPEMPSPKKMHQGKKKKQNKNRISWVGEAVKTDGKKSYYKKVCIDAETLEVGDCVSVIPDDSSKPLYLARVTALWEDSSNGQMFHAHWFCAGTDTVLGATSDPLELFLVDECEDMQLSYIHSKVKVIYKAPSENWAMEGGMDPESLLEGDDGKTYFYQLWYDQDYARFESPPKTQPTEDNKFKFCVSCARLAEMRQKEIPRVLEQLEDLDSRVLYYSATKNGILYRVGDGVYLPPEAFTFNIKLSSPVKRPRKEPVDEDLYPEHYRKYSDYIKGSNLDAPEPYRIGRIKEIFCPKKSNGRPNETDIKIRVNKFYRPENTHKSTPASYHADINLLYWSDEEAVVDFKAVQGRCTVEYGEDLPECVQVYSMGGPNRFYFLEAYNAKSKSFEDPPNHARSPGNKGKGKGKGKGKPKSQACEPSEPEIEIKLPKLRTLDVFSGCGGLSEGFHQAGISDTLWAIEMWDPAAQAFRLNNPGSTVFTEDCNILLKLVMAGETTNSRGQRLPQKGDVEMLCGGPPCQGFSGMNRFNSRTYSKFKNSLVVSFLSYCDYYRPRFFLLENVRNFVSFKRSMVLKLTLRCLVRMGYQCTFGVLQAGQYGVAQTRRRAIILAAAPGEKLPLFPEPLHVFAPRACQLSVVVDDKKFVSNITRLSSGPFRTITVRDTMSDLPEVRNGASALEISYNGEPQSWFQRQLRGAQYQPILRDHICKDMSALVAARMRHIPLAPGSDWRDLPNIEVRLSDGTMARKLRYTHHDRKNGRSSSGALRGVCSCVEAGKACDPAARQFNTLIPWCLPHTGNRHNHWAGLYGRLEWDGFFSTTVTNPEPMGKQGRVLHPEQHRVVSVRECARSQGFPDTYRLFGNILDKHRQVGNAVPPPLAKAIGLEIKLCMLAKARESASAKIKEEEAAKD

## C[n+]1cccc2c(N)cccc21 [1j, 5-amino-1-methylquinolin-1-ium iodide]
Caco-2 cells
  Classification (active transport / efflux): no detectable efflux; also recorded: High permeability
[1]; Caco-2
  efflux ratio at 2 h, 10 μM: 1.33
[1]; Caco-2, pH 7.4
  Papp A→B at 2 h, 10 μM: 34.2 ×10⁻⁶ cm/s
  Papp B→A at 2 h, 10 μM: 45.2 ×10⁻⁶ cm/s
[2]; 10 nM-300 μM
  inhibition of SIRT1 (in words): did not inhibit
[2]; 600 μM
  SIRT1 activity (in words): minor reduction in SIRT1 activity
[3]; 10 μM
  NAD+ levels vs. control: significant increase
[3]; 30 μM
  intracellular SAM levels relative to control adipocytes: significant increase
[3]; 1-60 μM
  increase in NAD+ levels relative to control adipocytes: 1.2-1.6 fold
[3]; one-way ANOVA
  intracellular levels of NA: no statistically significant main effect
  intracellular levels of SAH: no statistically significant main effect
[4]; concentrations above 100 μM could not be tested (assay interference), read-out: IC50, Nicotinamide phosphoribosyl transferase
  IC50: > 100 µM
[4]; up to 100 μM
  inhibition of NAMPT (in words): did not inhibit
[5]; 10 μM, 24 h
  1-MNA levels in differentiated adipocytes relative to control: significantly decreased
[5]; Mus musculus, 3T3-L1, 24 h, 0.3-60 μM, 3-parameter sigmoidal fit, read-out: EC50 for inhibition of NNMT (intracellular 1-MNA) in fully differentiated adipocytes
  EC50: 2.3 µM
[5]; adipocytes, 24 h
  intracellular levels of 1-MNA: significant reduction
[5]; inhibitor concentrations 10-60 μM
  relative intracellular 1-MNA levels, % of level in untreated adipocytes: ~40%
[5]; pre-adipocytes, 24 h
  intracellular levels of 1-MNA: significant reduction
[6]; 10 nM to 200 μM (1,8-diMQ) or 600 μM (5-amino-1MQ)
  inhibition of DNMT1 (in words): did not inhibit
[6]; NI: no inhibition, read-out: IC50, DNA (cytosine-5)-methyltransferase 1
  IC50: > 200 µM
[7]; 30 μM
  reduction of lipogenesis compared to control untreated adipocytes: 50%
[7]; 60 μM
  reduction of lipogenesis compared to control untreated adipocytes: 70%
[7]; 15, 30, 60 μM
  lipid accumulation in differentiating pre-adipocytes (in words): concentration-dependent inhibition of lipid accumulation
